What all share (assay): KinomeScan profiling
Holding throughout (assay type): binding

One assay concerns the target CLK2 (Homo sapiens, UniProt P49760). The note with it: CLK2, 1 μM; read-out: % control. The method in brief: (§1)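 At 1 μM in DMSO, compounds are run through a broad 468-member kinase panel. The luminescent read-out is normalised so that vehicle gives 100% and a positive control gives 0%; any kinase falling below 35% is treated as a target.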
In the next assay the target is T1, SIK (Homo sapiens, UniProt P57059).
T1 construct: purchased KinomeScan® (panel service)
T1 sequence (P57059 whole entry): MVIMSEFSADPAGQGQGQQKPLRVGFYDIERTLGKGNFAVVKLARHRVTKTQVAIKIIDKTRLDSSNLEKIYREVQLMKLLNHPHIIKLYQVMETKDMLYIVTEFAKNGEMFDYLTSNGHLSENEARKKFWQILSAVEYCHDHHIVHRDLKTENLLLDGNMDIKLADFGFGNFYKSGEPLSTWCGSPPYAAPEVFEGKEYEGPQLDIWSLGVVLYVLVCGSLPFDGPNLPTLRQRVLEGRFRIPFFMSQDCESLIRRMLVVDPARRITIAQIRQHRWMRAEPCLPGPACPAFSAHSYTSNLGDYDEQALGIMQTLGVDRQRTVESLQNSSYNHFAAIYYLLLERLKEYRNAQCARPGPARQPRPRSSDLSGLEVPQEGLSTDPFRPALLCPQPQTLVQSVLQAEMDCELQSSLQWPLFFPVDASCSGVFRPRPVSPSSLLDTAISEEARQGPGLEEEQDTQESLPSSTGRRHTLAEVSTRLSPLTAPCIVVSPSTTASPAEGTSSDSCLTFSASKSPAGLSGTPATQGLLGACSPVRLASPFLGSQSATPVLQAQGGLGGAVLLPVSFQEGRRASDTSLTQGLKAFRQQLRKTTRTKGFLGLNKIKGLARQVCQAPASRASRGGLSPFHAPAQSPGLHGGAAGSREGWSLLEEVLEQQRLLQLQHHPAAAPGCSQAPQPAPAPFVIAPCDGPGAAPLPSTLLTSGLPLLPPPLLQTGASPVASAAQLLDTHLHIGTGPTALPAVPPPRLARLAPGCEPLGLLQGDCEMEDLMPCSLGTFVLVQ
The note with it: read-out: % control. The essentials: as §1

A further assay addresses MARK2 (Homo sapiens, UniProt Q7KZI7). Particulars: MARK2, 1 μM; read-out: % control. The method in brief: as §1
The next assay addresses WNK1 (Homo sapiens, UniProt Q9H4A3). Particulars: WNK1, 1 μM; read-out: % control. The essentials: as §1
The target of the next assay is T2, SYK (Homo sapiens, UniProt P43405).
T2 construct: purchased KinomeScan® (panel service)
Particulars: read-out: % control. The essentials:
as §1

A further assay concerns the target T3, ARK5 (Homo sapiens, UniProt O60285).
T3 construct: purchased KinomeScan®
T3 sequence (O60285 1-661): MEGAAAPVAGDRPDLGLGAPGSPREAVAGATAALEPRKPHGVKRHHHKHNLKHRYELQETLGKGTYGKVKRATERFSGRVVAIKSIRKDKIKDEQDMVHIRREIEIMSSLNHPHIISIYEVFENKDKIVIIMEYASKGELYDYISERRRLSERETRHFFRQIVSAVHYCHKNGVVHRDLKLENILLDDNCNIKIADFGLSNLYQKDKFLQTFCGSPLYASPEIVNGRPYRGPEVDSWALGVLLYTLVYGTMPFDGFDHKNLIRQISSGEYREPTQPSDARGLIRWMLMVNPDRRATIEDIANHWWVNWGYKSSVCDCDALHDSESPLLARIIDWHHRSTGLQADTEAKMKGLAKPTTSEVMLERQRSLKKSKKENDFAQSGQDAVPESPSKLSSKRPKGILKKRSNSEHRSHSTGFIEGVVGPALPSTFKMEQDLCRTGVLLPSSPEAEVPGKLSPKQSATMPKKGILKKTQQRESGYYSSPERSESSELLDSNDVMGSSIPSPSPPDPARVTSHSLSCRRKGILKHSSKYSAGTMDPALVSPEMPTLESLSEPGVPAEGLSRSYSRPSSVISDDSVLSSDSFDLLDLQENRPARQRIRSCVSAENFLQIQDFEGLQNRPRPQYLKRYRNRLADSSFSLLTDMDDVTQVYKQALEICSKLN
Particulars: ARK5, 1 μM; read-out: % control. The method in brief:
as §1

In the next assay the target is T4, TSSK3 (Homo sapiens, UniProt Q96PN8).
T4 sequence (Q96PN8 1-268): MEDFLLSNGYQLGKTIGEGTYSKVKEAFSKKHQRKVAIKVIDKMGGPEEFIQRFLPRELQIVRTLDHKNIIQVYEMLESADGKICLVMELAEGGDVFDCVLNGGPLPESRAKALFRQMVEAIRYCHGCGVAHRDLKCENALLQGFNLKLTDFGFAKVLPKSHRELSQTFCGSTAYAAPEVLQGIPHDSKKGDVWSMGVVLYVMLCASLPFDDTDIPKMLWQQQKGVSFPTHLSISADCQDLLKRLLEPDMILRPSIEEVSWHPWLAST
Particulars: TSSK3, 1 μM; read-out: % control. The method in brief: as §1

Another assay has as its target CDC2L1 (Homo sapiens, UniProt P21127). The note with it: CDC2L1, 1 μM; read-out: % control. The essentials:
as §1

In another assay the target is CSNK1D (Homo sapiens, UniProt P48730). The note with it: read-out: % control. The essentials: as §1
Sequence of CSNK1D (P48730 whole entry): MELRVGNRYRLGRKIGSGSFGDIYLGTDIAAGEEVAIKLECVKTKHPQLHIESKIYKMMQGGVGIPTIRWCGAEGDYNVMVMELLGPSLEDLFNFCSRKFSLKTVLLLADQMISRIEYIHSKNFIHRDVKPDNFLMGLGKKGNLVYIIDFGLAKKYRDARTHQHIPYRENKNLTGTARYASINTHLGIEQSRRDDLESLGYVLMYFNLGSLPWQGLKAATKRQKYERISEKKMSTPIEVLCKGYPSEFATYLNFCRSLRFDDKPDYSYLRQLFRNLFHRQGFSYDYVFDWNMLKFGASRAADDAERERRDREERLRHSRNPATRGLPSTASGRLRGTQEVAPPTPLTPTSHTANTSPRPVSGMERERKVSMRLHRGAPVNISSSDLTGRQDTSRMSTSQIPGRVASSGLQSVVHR
The target of another assay is PRKR (Homo sapiens, UniProt P19525). The note with it: read-out: % control. The method in brief:
as §1

A further assay concerns the target PKN2 (Homo sapiens, UniProt Q16513). Particulars: PKN2, 1 μM; read-out: % control. The essentials:
as §1

The next assay deals with GSK3B (Homo sapiens, UniProt P49841). Particulars: read-out: % control. The method in brief:
as §1

The next assay addresses IGF1R (Homo sapiens, UniProt P08069). Particulars: read-out: % control. The essentials: as §1
For a further assay, the target named is T5, PRKG2 (Homo sapiens, UniProt Q13237).
T5 sequence (Q13237 1-762): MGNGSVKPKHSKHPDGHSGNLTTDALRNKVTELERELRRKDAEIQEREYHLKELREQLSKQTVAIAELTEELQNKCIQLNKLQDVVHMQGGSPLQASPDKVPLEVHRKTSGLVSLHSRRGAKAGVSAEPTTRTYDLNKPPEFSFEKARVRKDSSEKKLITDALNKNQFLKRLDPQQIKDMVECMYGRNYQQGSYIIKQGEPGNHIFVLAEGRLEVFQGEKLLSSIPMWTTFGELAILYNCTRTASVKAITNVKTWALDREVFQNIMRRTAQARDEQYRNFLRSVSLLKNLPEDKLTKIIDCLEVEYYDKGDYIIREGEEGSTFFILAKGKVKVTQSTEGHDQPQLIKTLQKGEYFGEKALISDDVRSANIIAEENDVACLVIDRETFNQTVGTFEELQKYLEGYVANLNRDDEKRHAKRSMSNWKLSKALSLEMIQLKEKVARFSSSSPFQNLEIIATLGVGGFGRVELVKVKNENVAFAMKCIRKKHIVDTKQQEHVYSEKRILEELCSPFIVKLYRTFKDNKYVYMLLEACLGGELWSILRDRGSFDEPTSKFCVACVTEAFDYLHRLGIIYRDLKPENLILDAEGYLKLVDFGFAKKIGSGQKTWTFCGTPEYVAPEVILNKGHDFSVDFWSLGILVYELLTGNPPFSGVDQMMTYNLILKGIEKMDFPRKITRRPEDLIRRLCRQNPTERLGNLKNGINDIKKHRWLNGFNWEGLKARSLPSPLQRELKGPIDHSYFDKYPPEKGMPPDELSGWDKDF
The note with it: PRKG2, 1 μM; read-out: % control. The method in brief: as §1

Sequence of CLK2 (P49760 whole entry): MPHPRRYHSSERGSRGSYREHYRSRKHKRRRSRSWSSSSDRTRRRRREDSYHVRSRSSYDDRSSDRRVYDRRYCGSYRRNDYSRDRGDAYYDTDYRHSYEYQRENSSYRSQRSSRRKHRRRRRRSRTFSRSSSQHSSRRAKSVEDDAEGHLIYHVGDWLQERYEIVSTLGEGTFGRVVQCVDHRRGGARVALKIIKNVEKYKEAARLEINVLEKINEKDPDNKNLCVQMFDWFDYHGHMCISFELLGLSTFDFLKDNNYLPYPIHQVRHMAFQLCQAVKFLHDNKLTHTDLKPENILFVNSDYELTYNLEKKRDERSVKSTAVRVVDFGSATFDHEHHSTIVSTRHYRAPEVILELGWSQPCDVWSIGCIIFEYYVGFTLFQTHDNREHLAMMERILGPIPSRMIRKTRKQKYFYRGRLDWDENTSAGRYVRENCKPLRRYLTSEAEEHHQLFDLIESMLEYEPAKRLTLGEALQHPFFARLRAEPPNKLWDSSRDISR
Sequence of CDC2L1 (P21127 whole entry): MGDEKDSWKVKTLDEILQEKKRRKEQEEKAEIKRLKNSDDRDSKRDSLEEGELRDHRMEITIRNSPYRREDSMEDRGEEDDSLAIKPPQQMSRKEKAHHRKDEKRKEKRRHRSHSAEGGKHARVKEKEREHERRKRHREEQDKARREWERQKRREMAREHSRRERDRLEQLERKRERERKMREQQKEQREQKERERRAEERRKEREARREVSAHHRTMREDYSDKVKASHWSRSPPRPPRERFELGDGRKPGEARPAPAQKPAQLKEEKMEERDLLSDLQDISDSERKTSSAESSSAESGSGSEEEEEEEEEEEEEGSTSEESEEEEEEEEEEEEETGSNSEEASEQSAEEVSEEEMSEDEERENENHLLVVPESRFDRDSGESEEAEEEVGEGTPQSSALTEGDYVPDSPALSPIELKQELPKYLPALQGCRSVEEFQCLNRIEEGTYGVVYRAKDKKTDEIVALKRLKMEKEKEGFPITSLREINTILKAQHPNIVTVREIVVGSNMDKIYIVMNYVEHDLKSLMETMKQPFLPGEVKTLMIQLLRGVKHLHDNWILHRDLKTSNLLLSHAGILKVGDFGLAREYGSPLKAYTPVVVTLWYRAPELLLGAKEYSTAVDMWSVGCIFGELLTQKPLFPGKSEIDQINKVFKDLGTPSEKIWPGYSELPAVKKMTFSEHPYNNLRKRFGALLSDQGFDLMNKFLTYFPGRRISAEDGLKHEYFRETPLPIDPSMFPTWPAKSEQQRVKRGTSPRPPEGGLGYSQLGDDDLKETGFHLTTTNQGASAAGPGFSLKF
Sequence of PKN2 (Q16513 whole entry): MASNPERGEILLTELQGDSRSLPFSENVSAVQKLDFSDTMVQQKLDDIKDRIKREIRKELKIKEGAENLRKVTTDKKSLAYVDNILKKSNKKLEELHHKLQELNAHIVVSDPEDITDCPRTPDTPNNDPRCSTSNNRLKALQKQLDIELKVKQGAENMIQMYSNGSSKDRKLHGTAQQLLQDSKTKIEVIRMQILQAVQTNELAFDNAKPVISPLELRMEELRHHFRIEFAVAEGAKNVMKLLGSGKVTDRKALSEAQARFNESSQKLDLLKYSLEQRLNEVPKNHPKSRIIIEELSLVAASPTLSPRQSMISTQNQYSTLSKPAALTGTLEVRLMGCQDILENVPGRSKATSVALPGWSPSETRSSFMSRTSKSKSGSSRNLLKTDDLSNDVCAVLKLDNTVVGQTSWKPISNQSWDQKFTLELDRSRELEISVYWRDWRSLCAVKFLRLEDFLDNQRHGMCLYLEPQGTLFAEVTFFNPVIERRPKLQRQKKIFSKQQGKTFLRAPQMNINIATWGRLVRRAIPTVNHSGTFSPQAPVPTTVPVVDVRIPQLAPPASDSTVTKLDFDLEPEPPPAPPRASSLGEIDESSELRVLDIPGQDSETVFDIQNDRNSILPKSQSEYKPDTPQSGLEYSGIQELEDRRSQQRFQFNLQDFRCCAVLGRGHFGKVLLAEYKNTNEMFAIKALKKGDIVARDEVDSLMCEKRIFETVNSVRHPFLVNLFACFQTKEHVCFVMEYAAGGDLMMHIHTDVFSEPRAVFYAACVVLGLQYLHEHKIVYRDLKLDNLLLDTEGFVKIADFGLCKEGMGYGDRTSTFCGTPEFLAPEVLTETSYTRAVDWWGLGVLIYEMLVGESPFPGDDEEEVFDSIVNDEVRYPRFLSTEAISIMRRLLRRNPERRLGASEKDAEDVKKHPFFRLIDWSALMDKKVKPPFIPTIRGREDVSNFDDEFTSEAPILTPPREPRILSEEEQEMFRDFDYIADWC
Sequence of MARK2 (Q7KZI7 whole entry): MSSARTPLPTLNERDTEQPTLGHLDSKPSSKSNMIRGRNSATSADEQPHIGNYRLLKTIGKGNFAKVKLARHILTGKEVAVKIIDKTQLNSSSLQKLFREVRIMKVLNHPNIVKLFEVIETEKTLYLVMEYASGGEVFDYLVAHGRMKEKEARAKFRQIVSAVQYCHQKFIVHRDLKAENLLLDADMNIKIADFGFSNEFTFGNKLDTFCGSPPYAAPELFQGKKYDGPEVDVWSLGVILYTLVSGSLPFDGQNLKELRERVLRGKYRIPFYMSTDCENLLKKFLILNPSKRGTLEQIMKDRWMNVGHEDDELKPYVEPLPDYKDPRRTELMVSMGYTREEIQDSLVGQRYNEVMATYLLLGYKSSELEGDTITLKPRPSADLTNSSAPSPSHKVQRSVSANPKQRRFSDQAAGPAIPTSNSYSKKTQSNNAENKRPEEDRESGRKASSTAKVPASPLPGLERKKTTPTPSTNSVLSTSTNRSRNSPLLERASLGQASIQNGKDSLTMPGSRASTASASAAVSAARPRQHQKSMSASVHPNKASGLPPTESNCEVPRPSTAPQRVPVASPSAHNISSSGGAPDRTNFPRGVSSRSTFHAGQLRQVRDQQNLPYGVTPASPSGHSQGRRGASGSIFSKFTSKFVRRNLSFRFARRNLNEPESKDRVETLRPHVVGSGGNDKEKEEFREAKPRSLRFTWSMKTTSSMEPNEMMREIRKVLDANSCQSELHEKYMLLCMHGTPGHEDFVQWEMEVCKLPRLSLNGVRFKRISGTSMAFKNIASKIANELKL
Sequence of PRKR (P19525 whole entry): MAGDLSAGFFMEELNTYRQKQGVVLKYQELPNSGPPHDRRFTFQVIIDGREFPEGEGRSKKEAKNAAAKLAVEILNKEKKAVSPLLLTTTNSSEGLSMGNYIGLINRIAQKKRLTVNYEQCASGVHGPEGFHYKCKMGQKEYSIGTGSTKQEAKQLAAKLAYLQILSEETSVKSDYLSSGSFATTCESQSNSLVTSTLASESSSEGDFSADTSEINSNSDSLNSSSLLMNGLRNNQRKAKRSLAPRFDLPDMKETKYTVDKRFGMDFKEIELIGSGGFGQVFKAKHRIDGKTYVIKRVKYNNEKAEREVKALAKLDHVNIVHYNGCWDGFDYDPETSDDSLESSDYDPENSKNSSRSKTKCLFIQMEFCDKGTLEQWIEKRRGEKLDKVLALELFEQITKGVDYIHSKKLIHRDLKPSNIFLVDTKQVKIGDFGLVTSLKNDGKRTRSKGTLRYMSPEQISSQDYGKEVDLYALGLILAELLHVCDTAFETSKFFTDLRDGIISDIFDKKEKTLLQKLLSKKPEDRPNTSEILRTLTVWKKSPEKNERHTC

For the molecule `CNc1c(-c2ccc(C(=O)N3CCC(N4CCOCC4)CC3)cc2)cnc2[nH]cc(Cl)c12` [Compound 96, (4-(3-chloro-4-(methylamino)-1H-pyrrolo[2,3-b]pyridin-5-yl)phenyl)(4-morpholinopiperidin-1-yl)methanone], the remaining binding at 1 µM was 11% at CLK2; 87% at SIK; 60% on MARK2; 80% at WNK1; 100% at SYK; 64% on ARK5. The remaining binding at 1 µM on TSSK3 came to 45%; at CDC2L1, 96%; at CSNK1D, 90%; at PRKR, 70%; on PKN2, 87%; at GSK3B, 63%. Also, the remaining binding at 1 µM on IGF1R and at PRKG2 was 100% throughout.
Take `O=C(c1ccc(-c2cnc3[nH]cc(Cl)c3c2NC2CCCC2)cc1)N1CCC(N2CCOCC2)CC1` [Compound 101, (4-(3-chloro-4-(cyclopentylamino)-1H-pyrrolo[2,3-b]pyridin-5-yl)phenyl)(4-morpholinopiperidin-1-yl)methanone]: the remaining binding at 1 µM was determined as 65% at CLK2; 100% at SIK; 68% at MARK2; 90% on WNK1; 100% on SYK; 67% at ARK5. Also, the remaining binding at 1 µM on TSSK3 worked out at 98%; on CDC2L1 it was 94%; on CSNK1D, 92%; at PRKR it was 82%; on PKN2, 75%; on GSK3B, 100%. For the same molecule, the values for the remaining binding at 1 µM at IGF1R and on PRKG2 were 86% and 100%, respectively.
For the molecule `CNc1c(-c2cnn([C@H]3CCN(C(C)=O)C[C@@H]3F)c2)cnc2[nH]cc(Cl)c12` [Compound 77, 1-((3S,4S)-4-(4-(3-chloro-4-(methylamino)-1H-pyrrolo[2,3-b]pyridin-5-yl)-1H-pyrazol-1-yl)-3-fluoropiperidin-1-yl)ethan-1-one], the remaining binding at 1 µM turned out to be 57% at CLK2; 94% at SIK; 86% at MARK2; 67% at WNK1; 100% on SYK; 86% on ARK5. Further, the remaining binding at 1 µM is 65% on TSSK3; 99% at CDC2L1; 84% at CSNK1D; 68% on PRKR; 51% on PKN2; 69% on GSK3B. In addition, the remaining binding at 1 µM worked out at 91% at IGF1R and 100% at PRKG2.

The values above are taken from US12275731B2, “Azaindole inhibitors of wild-type and mutant forms of LRRK2” (DANA-FARBER CANCER INSTITUTE, INC., priority 2018, dated 2025).
